Experimental findings from ChEMBL document CHEMBL2169808, “Discovery of pyrazole carboxylic acids as potent inhibitors of rat long chain L-2-hydroxy acid oxidase” (Bioorg Med Chem Lett, 2012) are described below.

Assay [1] concerns the target T1, 2-Hydroxyacid oxidase 2 (Homo sapiens) (UniProt Q9NYQ3).
T1 sequence (whole entry): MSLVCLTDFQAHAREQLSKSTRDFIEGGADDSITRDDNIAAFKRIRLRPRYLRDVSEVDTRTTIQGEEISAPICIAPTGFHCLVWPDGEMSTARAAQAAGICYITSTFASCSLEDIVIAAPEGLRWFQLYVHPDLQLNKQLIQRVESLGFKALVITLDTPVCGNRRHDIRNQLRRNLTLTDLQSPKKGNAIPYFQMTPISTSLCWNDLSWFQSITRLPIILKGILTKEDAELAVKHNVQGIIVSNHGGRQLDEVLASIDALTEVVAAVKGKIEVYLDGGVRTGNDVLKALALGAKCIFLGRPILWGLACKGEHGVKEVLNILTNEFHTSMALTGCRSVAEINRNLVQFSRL
As to the kind of experiment: Inhibition of human Hao2-mediated oxidation of 2-hydroxyoctanoic acid assessed as proportionate release of H2O2 at 10 uM.

Assay [2] deals with T1, 2-Hydroxyacid oxidase 2 (Homo sapiens). In words: Inhibition of human Hao2-mediated oxidation of 2-hydroxyoctanoic acid assessed as proportionate release of H2O2 at 1 uM.
The target of assay [3] is T2, 2-Hydroxyacid oxidase 2 (Rattus norvegicus) (UniProt Q07523).
T2 sequence (whole entry): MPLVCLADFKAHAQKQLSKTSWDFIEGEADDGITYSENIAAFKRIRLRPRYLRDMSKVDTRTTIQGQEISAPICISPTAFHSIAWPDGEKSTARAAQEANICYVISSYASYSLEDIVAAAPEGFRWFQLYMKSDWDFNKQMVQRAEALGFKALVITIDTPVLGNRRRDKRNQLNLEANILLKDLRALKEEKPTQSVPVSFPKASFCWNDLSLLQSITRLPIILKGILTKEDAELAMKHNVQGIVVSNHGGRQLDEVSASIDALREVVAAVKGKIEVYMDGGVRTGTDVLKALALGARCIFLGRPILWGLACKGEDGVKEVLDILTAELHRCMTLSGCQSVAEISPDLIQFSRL
As to the kind of experiment: Inhibition of rat Hao2-mediated oxidation of 2-hydroxyoctanoic acid assessed as proportionate release of H2O2 at 1 uM.

The target in assay [4] is T2, 2-Hydroxyacid oxidase 2 (Rattus norvegicus). In words: Inhibition of rat Hao2-mediated oxidation of 2-hydroxyoctanoic acid assessed as proportionate release of H2O2 at 10 uM.
The species entered for another assay is Rattus norvegicus. In words: Selectivity ratio of IC50 for rat Hao1 to IC50 for rat Hao2.
In assay [5] the target is T3, 2-Hydroxyacid oxidase 2 (Homo sapiens, UniProt Q9NYQ3).
T3 sequence (Q9NYQ3 whole entry): T1 sequence (whole entry)
As to the kind of experiment: Inhibition of human Hao2-mediated oxidation of 2-hydroxyoctanoic acid assessed as proportionate release of H2O2.

Assay [6] deals with T4, 2-Hydroxyacid oxidase 2 (Rattus norvegicus, UniProt Q07523).
T4 sequence (Q07523 whole entry): T2 sequence (whole entry)
In words: Inhibition of rat Hao2-mediated oxidation of 2-hydroxyoctanoic acid assessed as proportionate release of H2O2.

Bounds are passed on as bounds.

One may read the inhibition as the relative decrease from the control value, in per cent. Turning to `CNC(=O)c1[nH]nc(C)c1Cc1cccc(-c2ccc(F)cc2)c1`, the inhibition is 19% in assay [1], 7% in assay [2], 9% in assay [3] and 53% in assay [4].
Turning to `Cc1n[nH]c(C(=O)O)c1-c1ccc(F)cc1`, the figures for the inhibition in assay [1], in assay [2] and in assay [3] were 13%, 3% and 1%, respectively. Besides, the Ratio IC50 in the assay listed under Rattus norvegicus was over 150.
As for `Cc1n[nH]c(C(=O)O)c1Cc1ccccc1Oc1ccccc1`, the inhibition in assay [1] is 49%; in assay [2] it was 9%; in assay [3], 10%; in assay [4] it was 69%. The Ratio IC50 in the assay listed under Rattus norvegicus was over 150.
For `Cc1n[nH]c(C(=O)O)c1Cc1ccc(C(F)(F)F)cc1`, the inhibition in assay [1] stood at 12%; in assay [2], 9%; in assay [3], 35%; in assay [4], 71%. Further, the Ratio IC50 in the assay filed under Rattus norvegicus is over 150.
The like results for `Cc1n[nH]c(C(=O)O)c1Cc1cccc(C(=O)O)c1` were, in that order, 0%, 3%, 7%, 60% and over 150.
Take `Cc1c(Cc2cccc(-c3ccc(F)cc3)c2)c(C(=O)O)nn1C`: the inhibition in assay [1] is 4%; in assay [2] it was 2%; in assay [3], 12%; in assay [4] it was 57%.
Regarding `Cc1n[nH]c(C(=O)O)c1-c1ccc(-c2ccc(F)cc2)cc1`, the inhibition in assay [1] was 55%; in assay [2], 19%; in assay [3], 13%; in assay [4], 65%. Moreover, the Ratio IC50 in the assay filed under Rattus norvegicus was over 150.
The like results for `Cc1n[nH]c(C(=O)O)c1Cc1ccc(C#N)cc1` were, in that order, 6%, 0%, 33%, 85% and over 150.
For `Cc1n[nH]c(C(=O)O)c1CCc1ccc(F)cc1`, in that order: 16%, 5%, 31%, 81% and over 150.
For `Cc1n[nH]c(C(=O)O)c1Cc1cc2ccccc2o1`, in that order: 66%, 26%, 47%, 87% and over 150.
For the molecule `Cc1n[nH]c(C(=O)Nc2nnn[nH]2)c1Cc1cccc(-c2ccc(F)cc2)c1`, the inhibition in assay [1] amounted to 0%; in assay [2], 0%; in assay [3], 0%; in assay [4], 9%.
With `Cc1n[nH]c(C(=O)O)c1Cc1ccccc1-c1ccc(F)cc1`, the inhibition is 56% in assay [1], 11% in assay [2], 21% in assay [3] and 73% in assay [4]. For the same molecule, in the assay listed under Rattus norvegicus, the Ratio IC50 was over 150.
Take `Cc1nn(C)c(C(=O)O)c1Cc1cccc(-c2ccc(F)cc2)c1`: the inhibition was 3% in assay [1], 5% in assay [2], 4% in assay [3] and 10% in assay [4].
What is called IC50 is the concentration at which inhibition is half-maximal. As to `Cc1n[nH]c(C(=O)O)c1-c1cccc(-c2ccc(F)cc2)c1`, the inhibition in assay [3] came to 35%; in assay [4], 79%. On 2-Hydroxyacid oxidase 2 [5], the IC50 is 950 nM.
For `Cc1n[nH]c(C(=O)O)c1Cc1ccc(C(=O)O)cc1`, the inhibition is 22% in assay [1], 3% in assay [2], 40% in assay [3] and 69% in assay [4]. Also, the Ratio IC50 in the assay filed under Rattus norvegicus is over 150.
Take `Cc1n[nH]c(C(=O)O)c1Cc1cccc(-c2ccc(OC(F)(F)F)cc2)c1`: the inhibition was 34% in assay [1] and 6% in assay [2]. Also, the Ratio IC50 in the assay filed under Rattus norvegicus is over 150. The IC50 on 2-Hydroxyacid oxidase 2 [6] was 300 nM.
Turning to `Cc1n[nH]c(C(=O)NS(C)(=O)=O)c1Cc1cccc(-c2ccc(F)cc2)c1`, the inhibition was found to be 8% in assay [1], 8% in assay [2], 0% in assay [3] and 3% in assay [4].
Turning to `Cc1n[nH]c(C(=O)O)c1Cc1cccc(F)c1`, the inhibition in assay [1] amounted to 13%; in assay [2] it was 1%. Further, the Ratio IC50 in the assay filed under Rattus norvegicus is over 150. Moreover, the IC50 at 2-Hydroxyacid oxidase 2 [6] was found to be 200 nM.
The like results for `Cc1n[nH]c(C(=O)O)c1Cc1ccc2ccccc2n1` were, in that order, 18%, 2%, over 150 and 1700 nM.
